Active and inactive are the calls of the source. Cut-off read from the data, not from the text of the source: actives have a measured IC50 and inactives only a lower limit.

The assay deals with Envelope glycoprotein gp160 (Human immunodeficiency virus 1, UniProt Q6QLK5). The assay is described as follows: inhibitors of HIV fusion peptide binding, primary screen, biochemical, uHTS, fluorescence dequenching (AID 1986).
Sequence of Envelope glycoprotein gp160 (Q6QLK5 whole entry, the tested form may be a part): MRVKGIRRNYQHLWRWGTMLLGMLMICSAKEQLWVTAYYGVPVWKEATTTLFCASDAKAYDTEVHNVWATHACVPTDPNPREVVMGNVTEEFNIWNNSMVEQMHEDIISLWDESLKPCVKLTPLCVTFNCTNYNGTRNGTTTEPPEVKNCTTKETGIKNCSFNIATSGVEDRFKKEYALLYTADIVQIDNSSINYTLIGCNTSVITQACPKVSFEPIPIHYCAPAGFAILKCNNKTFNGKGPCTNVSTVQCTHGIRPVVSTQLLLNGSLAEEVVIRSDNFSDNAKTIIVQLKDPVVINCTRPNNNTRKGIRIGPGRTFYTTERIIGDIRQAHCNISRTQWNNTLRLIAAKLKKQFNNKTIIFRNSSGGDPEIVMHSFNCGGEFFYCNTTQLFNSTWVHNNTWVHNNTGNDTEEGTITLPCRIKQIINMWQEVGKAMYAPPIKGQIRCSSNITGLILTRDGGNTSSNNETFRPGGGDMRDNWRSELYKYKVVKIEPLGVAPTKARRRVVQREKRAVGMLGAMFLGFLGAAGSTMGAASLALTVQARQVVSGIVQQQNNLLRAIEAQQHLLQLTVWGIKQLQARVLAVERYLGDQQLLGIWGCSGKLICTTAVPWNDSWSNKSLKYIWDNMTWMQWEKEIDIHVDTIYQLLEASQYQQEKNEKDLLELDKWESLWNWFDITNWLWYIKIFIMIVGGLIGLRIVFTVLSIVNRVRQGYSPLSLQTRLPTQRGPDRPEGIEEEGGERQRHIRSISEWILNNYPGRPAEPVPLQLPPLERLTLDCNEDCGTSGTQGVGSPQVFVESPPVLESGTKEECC

Turning to `Cc1ccc(N2C(=O)/C(=C\Nc3ccccc3-c3nnc(S)nc3O)c3ccccc3C2=O)c(C)c1`, the half-maximal inhibitory concentration (IC50) (in general, the concentration that inhibits the measured activity by half) was 23.9 µM (active).

For the origin of these results see ChEMBL document CHEMBL1201862, “PubChem BioAssay data set” (2004).
